Inhibition data for 16 compounds are collected here from US7799778B1, “5-substituted 2-aminopyridine analogs for treating allergic and inflammatory diseases” (Alcon, Inc., priority 2005, dated 2010).

The test deals with Syk (h) (Homo sapiens, UniProt P43405). Nature of the test: Syk kinase activity (inhibition) assay, 33P-ATP filter assay. Format: biochemical. The settings on record: 10 μM test agent; Syk (h) 5-10 mU; 40 minutes at room temperature. As for the experimental part:
In a final reaction volume of 25 μl, Syk (h) (5-10 mU) is incubated with 50 mM Tris pH 7.5, […], 0.1 mM Na3VO4, 0.1% β-mercaptoethanol, 0.1 mg/mL poly (Glu, Tyr) 4:1, 10 μM test agent, 10 mM Mg Acetate and [γ-^33P-ATP] (specific activity approximately 500 cpm/pmol, concentration as required). The reaction is initiated by the addition of the MgATP mix. After incubation for 40 minutes at room temperature, the reaction is stopped by the addition of 5 μl of a 3% phosphoric acid solution. 10 μl of the reaction is then spotted onto a Filtermat A and washed three times for 5 minutes in 75 mM phosphoric acid and once in methanol prior to drying and scintillation counting. Percent inhibition was calculated using the following formula:
% Control=((sample-mean no enzyme)/(mean plus enzyme−mean no enzyme))×100.
For orientation: inhibition means the share of the control response that was lost under treatment. A lower inhibition goes with a weak effect. `CN(C)CCN1CCN(c2ccc(-c3cc(C(F)(F)F)cc(C(F)(F)F)c3)cn2)CC1` displayed an inhibition at 10 µM of 56%.
In the case of `CN(C)CCN(C)c1ccc(-c2ccc(Cl)cc2)cn1` it was 51%; in that of `CN(C)CCN(C)c1ccc(-c2cccc(N(C)C)c2)cn1`, 45%; in that of `CN(C)CCN(C)c1ccc(-c2ccc(F)cc2F)cn1`, 45%.
`CCOc1cccc(-c2ccc(N(C)CCN(C)C)nc2)c1` yielded an inhibition at 10 µM of 42%.
As for `CCCC/C=C/c1ccc(N2CCN(CCN3CCCC3)CC2)nc1`, at 10 µM the inhibition was 38%.
Under `COc1cc(-c2ccc(N3CCN(CCN4CCCC4)CC3)nc2)cc(OC)c1OC` stands 37%; under `Fc1ccc(-c2ccc(N3CCN(CCN4CCCC4)CC3)nc2)c(F)c1`, 36%; under `COc1cc(-c2ccc(N3CCN(CCN(C)C)CC3)nc2)cc(OC)c1OC`, 36%.
Compound `CN(C)CCN1CCN(c2ccc(/C=C/c3ccccc3)cn2)CC1` showed an inhibition at 10 µM of 36%.
Under `COc1cncc(-c2ccc(N3CCOCC3)nc2)c1` stands 36%.
For the compound `Oc1cccc(-c2ccc(N3CCOCC3)nc2)c1`, 10 µM produced 35% inhibition.
`Fc1ccc(-c2ccc(N3CCOCC3)nc2)c(F)c1`: 10 µM produced 34% inhibition.
Under `c1cc(N2CCN(CCN3CCCC3)CC2)ncc1-c1ccc2c(c1)OCO2` stands 32%; under `CCCC/C=C/c1ccc(N2CCN(CCN(C)C)CC2)nc1`, 31%.
In the case of `CN(C)CCN1CCN(c2ccc(-c3ccc(OC(F)(F)F)cc3)cn2)CC1` it was 30%.
